system: MCF-7 mammary tumoral cells; experiment: Anti-proliferative activity upon the growth of MCF-7 cells (DNA measurement with DABA); assay type: cell-based; settings: 6 days, inhibition of the increase of DNA, read-out: concentration which inhibited the growth of MCF7 to an extent of 50% (IC50)
Procedure: B. Anti-proliferative activity of the products of the invention upon the growth of MCF-7 mammary tumoral cells.
The MCF-7 strains were kept under culture in FCS(1) medium at 37° C. under a humid atmosphere containing 5% CO2 and the cells at subconfluence were harvested by trypsination (0.05% trypsine, 0.02% EDTA), then rinsed by gentle centrifugation. A sample of the cells in suspension was counted on Malassez cell.
The cells, resuspended in FCS medium, were seeded at a rate of 30,000 cells per pit in multi-pit plates (24 pits of 2.5 cm^2) and twenty four hours after seeding (DO), the product to be tested was added to the medium in ethanolic solution (final concentration in ethanol: 0.1%), at a concentration of 10^−12 to 10^−6 M, the control pits receiving the same concentration of ethanol. The media were renewed every 48 hours and at the end of the experiment (D6), the medium was sucked off and the cells were immediately fixed with 150 microliters of methanol to estimate the DNA. The anti-proliferative activity of the products was evaluated by their capacity to inhibit the increase of DNA.
The DNA was measured by a fluorimetric method employing DABA (3,5-diaminobenzoic acid) (2): 150 microliters of DABA were added to each of the pits and the plates were then incubated for 45 minutes at 56° C., then 2 ml of 1 N HCl were added. The fluorescence was measured with the aid of a fluorimeter (length of the exiting wave: 408 nm, length of the emitting wave: 501 nm). The quantity of DNA per pit was evaluated with reference to a standard scale obtained by treating a standard DNA from calf thymus under the same conditions.
The concentration in nM which inhibited the growth of MCF7 to an extent of 50% (IC50) was determined in the manner indicated below:
(1) The fetal calf serum (FCS) culture medium was prepared as follows: MEM medium (minimal essential medium) to which were added:
Non-essential amino acids (GIBCO),
Peni-strepto (100 U/ml penicillin, 0.1 mg/ml streptomycin),
Fetal calf serum containing no steroids (10% final concentration).
(2) Puzas and Goodman, Analytical Biochemistry, Vol. 86, pp. 50, 1978.

IC50	Molecule
0.5 nM	CCCCN(C)C(=O)CCCCCCCCCC[C@H]1C[C@]2(C)[C@@H](O)CC[C@H]2[C@@H]2CCc3cc(O)ccc3[C@@H]12 [Example 13, N-Butyl-3,17β-Dihydroxy-N-Methyl-11β-Δ^1,3,5(10)-Estratriene-Undecanamide]
0.02 nM	CC(C)N(C)C(=O)CCCCCCCCCC[C@H]1C[C@]2(C)[C@@H](O)CC[C@H]2[C@@H]2CCc3cc(O)ccc3[C@@H]12 [Example 16, 3,17β-dihydroxy-N-methyl-N-isopropyl-11β-Δ^1,3,5(10)-estratriene undecanamide]
0.06 nM	CCCCN(C)C(=O)CCCCCCCCCCC[C@H]1C[C@]2(C)[C@@H](O)CC[C@H]2[C@@H]2CCc3cc(O)ccc3[C@@H]12 [Example 24, N-butyl-3,17β-dihydroxy-N-methyl-11β-Δ^1,3,5(10)-estratriene dodecanamide]
0.02 nM	N-butyl-3,17β-dihydroxy-N-methyl-19-nor-11β-Δ^1,3,5(10)-pregnatrien-20-yn undecanamide [Example 21]

From patent US6790971B1, “19-Nor-steroids” (Aventis Pharma S.A., priority 1989, dated 2004)
